From paper PMC6647401, “Phase I dose-escalation study of F14512, a polyamine-vectorized topoisomerase II inhibitor, in patients with platinum-refractory or resistant ovarian cancer” (Investigational New Drugs, 2018)
Several values for one entry are separate records, joined by “and”; a condition that tells them apart may be missing. Equal entries are not always repeated. Where two headings read alike, the source gives them in different places.

Experiments:
[1] = test system: platinum-resistant ovarian cancer (PROC); settings: cited from earlier work
[2] = test system: human cancer cell lines; design: method as in PMID 19047165; settings: in vitro; cited from earlier work
[3] = Plasma pharmacokinetics (LC/MS/MS); format: in vivo, human; settings: for AUCinf/dose level of F14512: n = 11, mean [range], three-hour infusion
Procedure: Plasma PK was studied after the administrations on days 1 and 3 of cycle 1 (pre-dose, T0+1.5 h, T0+3 h, T0+3.5 h, T0+4 h, T0+6 h T0+12 h, T0+24 h) and day 1 of cycle 2 (pre-dose, T0+3.5 h, T0+8 h, T0+24 h). F14512, its metabolite F16490 and the metabolite BG (an additional metabolite peak found in human during exploratory metabolite identification analysis and not retrieved in animal species) were assayed in plasma using liquid chromatography coupled with tandem mass spectrometry (LC/MS/MS).
Continuous data were summarized with frequency, median, range, mean, standard deviation and standard error if relevant. Categorical data were presented as frequencies and percentages. 95% confidence intervals (CI) were calculated following the exact method. PK parameters were compared for reproducibility between day 1 and day 3 of cycle 1 for F14512 and its metabolite F16490 using a pairwise t-test or a Wilcoxon test according to the normality of their distribution. Dose-proportionality of PK parameters for F14512 and its metabolite F16490 was investigated by graphical display only. A p value <0.05 was considered statistically significant. Data were analyzed using the SAS® system software version 9.3 for Windows® (Statistical Analysis System, Cary, NC, USA).

[4] = test system: experimental models; design: method as in PMID 19777159; settings: cited from earlier work
[5] = test system: platinum-refractory or resistant ovarian cancer; experiment: Efficacy by GCIG response criteria (RECIST 1.1 and CA-125); format: in vivo, human
Procedure: (§1) Toxicities were graded according to National Cancer Institute - Common Toxicity Criteria (NCI - CTC) for adverse events (AEs) (version 4.0). DLT determination criteria and safety assessments are described in the Online Resource. Response was assessed by using GCIG response criteria incorporating RECIST version 1.1 and CA-125. Plasma PK assessments and statistical methods are described in the Online Resource.

[6] = test system: SK-OV3 cancer cells; design: method as in PMID 26404751; settings: cited from earlier work
[7] = test system: patients with platinum-refractory or resistant ovarian cancer; format: in vivo
Procedure: This was an open-label, dose-escalation, multicenter, phase I study (EudraCT Number: 2012–005798-29) conducted in 3 investigational sites in France. The 10 mg/m^2/day dose of F14512 was planned as a starting dose (DL1) for escalation in cohorts of 3 to 6 patients until the MTD was reached. Dose escalation was based on a standard titration design by using increments of 33% except from the first dose escalation, which could proceed with a dose increment of 50% in the absence of grade 3 neutropenia and dose limiting toxicity (DLT) observed at DL1. Dose escalation then proceeded except if criteria of MTD were met at DL1. In that instance, the 5 mg/m^2/day dose was tested. All patients in a DL had to be followed for at least 3 weeks (cycle 1) for DLT evaluation before the first patient of the next dose level started treatment. The final decision to proceed to the next DL was made by the safety committee at the dose-escalation meeting. The MTD was defined as the DL at which 2/3 or 2/6 patients experienced a DLT during the first cycle. The Recommended Dose (RD) was the DL immediately below the MTD. A total of 10 evaluable patients had to be treated at the RD.
F14512 was administered as three-hour daily infusion through a central venous catheter for 3 consecutive days every 3 weeks depending on recovery to normal hematopoiesis or recovery of non-hematological toxicities to grade 1. During the first cycle, G- and GM-CSF use was prohibited, however, there were no such constraints in subsequent cycles.
DLTs were defined as one of the following drug-related AEs occurring during the first cycle: grade 4 neutropenia ≥ 7 days, grade 4 thrombocytopenia, or grade 3 thrombocytopenia requiring transfusion and/or associated with bleeding, grade 3 or 4 neutropenia concomitant with grade ≥ 3 infection or febrile neutropenia, any grade ≥ 3 gastrointestinal toxicity including grade ≥ 3 nausea, vomiting or diarrhea if persistent despite optimal antiemetic or anti-diarrheal treatment, any other drug-related grade ≥ 3 toxicity, any drug-related AE that required a delay of ≥ 2 weeks of the administration of cycle 2.

[8] = test system: relapsed or refractory acute myeloid leukemia (AML); design: method as in earlier work; settings: single agent, AML patients at first relapse; cited from earlier work
[9] = test system: PTS(+) A2780R cisplatin-resistant cell line; design: method as in PMID 26404751; settings: preliminary studies; cited from earlier work
[10] = test system: patients with platinum-refractory or resistant ovarian cancer; experiment: Safety: study drug-related adverse events (NCI-CTC v4.0); format: in vivo, human
Procedure: as §1
Safety was assessed by physical examination on days 1, 2 and 3 during each cycle. Complete blood cell counts were performed on days 4, 6, 8, 10, 12 and 15 of the first cycle, on day 1 of each subsequent cycle and then on a weekly basis thereafter. Serum chemistry was performed weekly during the first cycle and at the end of each cycle thereafter except serum magnesium and potassium which were measured twice weekly during the first week of each cycle and then, weekly for the following weeks. ECGs were performed at baseline and on day 1 of each cycle.

[11] = Overall n = 11 (both dose levels), worse grade by patient

Structure (SMILES): CC(=O)O[C@H]1C(=O)[C@@]2(C)[C@H]([C@H](OC(=O)c3ccccc3)[C@]3(O)C[C@H](OC(=O)[C@H](O)[C@@H](NC(=O)c4ccccc4)c4ccccc4)C(C)=C1C3(C)C)[C@]1(OC(C)=O)CO[C@@H]1C[C@@H]2O [paclitaxel]
- Progression free survival [1]: 2–6 months
- Response rates [1]: 0%–30%

Structure (SMILES): COc1cc([C@@H]2c3cc4c(cc3[C@@H](NC(=O)CNCCCNCCCCNCCCN)[C@H]3COC(=O)[C@H]23)OCO4)cc(OC)c1O [F14512]
- Cell lines with superior anti-proliferative activity [2]: 21/29
- Dose dependent PK parameters versus dose level ([3]; 5 versus 10 mg/m^2/day, no statistical analysis): increased with DL
- Cltot ([3]; D1 of cycle 1, n = 11, mean [range]): 13.2 [6.17–22.4] L/h
- AUCinf/dose level of F14512 ([3]; D1 of cycle 1, plasma): 152 [67.7–308]
- Cltot ([3]; D3 of cycle 1, n = 11, mean [range]): 12.9 [5.92–23.1] L/h
- AUCinf/dose level of F14512 ([3]; D3 of cycle 1, plasma): 156 [65.9–270]
- Difference of PK parameters between Day 1 and Day 3 ([3]; cycle 1, pairwise t-test or Wilcoxon test): not statistically significant
- Tumor response in experimental models ([4]; after intravenous or oral administration): complete tumor regression
- Experimental models with antitumor efficacy ([4]; in vivo): 13/19
- Response rate in experimental models ([4]; in vivo): 68%
- Objective response ([5]; 5 patients evaluable for efficacy, GCIG criteria): no objective response
- Stable disease (SD) as best overall response ([5]; of 5 evaluable patients (40%), both received 9 cycles, 1 at each DL): 2 patients
- Increased sensitivity to cytotoxicity compared to etoposide [6]: ten-fold
- Number of DLTs reported ([7]; 5 mg/m^2/day, in 2/6 treated patients): 2 DLTs
- Number of DLTs reported ([7]; 10 mg/m^2/day, in 3/4 evaluable patients): 6 DLTs
- Permanent treatment discontinuation because of study drug-related toxicity ([7]; in vivo): 5 patients
- Maximum tolerated dose (MTD) ([7]; three-hour daily infusion, 3 consecutive days every 3 weeks, both dose levels defined as MTD): 5 mg/m^2/day and 10 mg/m^2/day
- Complete remissions [8]: 36%
- Antitumor activity in ovarian tumor models [9]: confirmed the antitumor activity
- Study drug-related AE: Confusional state, Overall grades ([10]; 5 mg/m^2/day, n = 6, worse grade by patient): 1 (16.7) N (%)
- Grade 4 neutropenia, cycles affected / cycles administered ([10]; DL 5 mg/m^2/day): 14/16
- Neutropenic infection ([10]; DL 5 mg/m^2/day): 1 patient
- Grade 4 neutropenia, cycles affected / cycles administered ([10]; DL 10 mg/m^2/day): 12/13
- Study drug-related AE: Alopecia, Overall grades [10, 11]: 2 (18.2) N (%)
- Study drug-related AE: Any related TESS, Grade 3 [10, 11]: 6 (54.5) N (%)
- Study drug-related AE: Any related TESS, Grade 4 [10, 11]: 1 (9.1) N (%)
- Study drug-related AE: Any related TESS, Overall grades [10, 11]: 11 (100.0) N (%)
- Study drug-related AE: Asthenia, Grade 3 [10, 11]: 2 (18.2) N (%)
- Study drug-related AE: Asthenia, Overall grades [10, 11]: 9 (81.8) N (%)
- Study drug-related AE: Blood and lymphatic system disorders, Grade 3 [10, 11]: 4 (36.4) N (%)
- Study drug-related AE: Blood and lymphatic system disorders, Grade 4 [10, 11]: 1 (9.1) N (%)
- Study drug-related AE: Blood and lymphatic system disorders, Overall grades [10, 11]: 5 (45.5) N (%)
- Study drug-related AE: Confusional state, Overall grades [10, 11]: 1 (9.1) N (%)
- Study drug-related AE: Constipation, Overall grades [10, 11]: 2 (18.2) N (%)
- Study drug-related AE: Diarrhea, Overall grades [10, 11]: 2 (18.2) N (%)
- Study drug-related AE: Dysgeusia, Overall grades [10, 11]: 1 (9.1) N (%)
- Study drug-related AE: Dyspepsia, Overall grades [10, 11]: 1 (9.1) N (%)
- Study drug-related AE: Febrile neutropenia, Grade 3 [10, 11]: 4 (36.4) N (%)
- Study drug-related AE: Febrile neutropenia, Overall grades [10, 11]: 4 (36.4) N (%)
- Study drug-related AE: Gastrointestinal disorders, Grade 3 [10, 11]: 2 (18.2) N (%)
- Study drug-related AE: Gastrointestinal disorders, Overall grades [10, 11]: 6 (54.5) N (%)
- Study drug-related AE: General disorders and administration site conditions, Grade 3 [10, 11]: 2 (18.2) N (%)
- Study drug-related AE: General disorders and administration site conditions, Overall grades [10, 11]: 9 (81.8) N (%)
- Study drug-related AE: Gingivitis, Overall grades [10, 11]: 1 (9.1) N (%)
- Study drug-related AE: Infections and infestations, Overall grades [10, 11]: 1 (9.1) N (%)
- Study drug-related AE: Muscle spasms, Overall grades [10, 11]: 2 (18.2) N (%)
- Study drug-related AE: Musculoskeletal and connective tissue disorders, Overall grades [10, 11]: 2 (18.2) N (%)
- Study drug-related AE: Myalgia, Overall grades [10, 11]: 1 (9.1) N (%)
- Study drug-related AE: Nausea, Grade 3 [10, 11]: 2 (18.2) N (%)
- Study drug-related AE: Nausea, Overall grades [10, 11]: 6 (54.5) N (%)
- Study drug-related AE: Nervous system disorders, Overall grades [10, 11]: 1 (9.1) N (%)
- Study drug-related AE: Neutropenia, Overall grades [10, 11]: 1 (9.1) N (%)
- Study drug-related AE: Neutropenic infection, Overall grades [10, 11]: 1 (9.1) N (%)
- Study drug-related AE: Night sweats, Overall grades [10, 11]: 1 (9.1) N (%)
- Study drug-related AE: Onycholysis, Overall grades [10, 11]: 1 (9.1) N (%)
- Study drug-related AE: Psychiatric disorders, Overall grades [10, 11]: 1 (9.1) N (%)
- Study drug-related AE: Pyrexia, Overall grades [10, 11]: 1 (9.1) N (%)
- Study drug-related deaths ([10]; all 11 patients): no study drug-related deaths
- Vomiting ([10]; all 11 patients (36%)): 4 patients
- Metabolism and nutrition disorder with decreased appetite ([10]; all 11 patients (46%)): 5 patients
- Nausea ([10]; all 11 patients (55%)): 6 patients
- Grade 4 neutropenia, share of treated patients ([10]; all 11 patients, both dose levels): 90.9%
- Study drug-related SAEs per dose level ([10]; at each DL (10 and 5 mg/m^2/day)): 3 patients
- Grade 4 neutropenia, cycles affected / cycles administered ([10]; both dose levels): 26/29
- Gastrointestinal disorders ([10]; in vivo): 6 patients
- General disorders (mainly asthenia) ([10]; in vivo): 9 patients
- Grade 3 febrile neutropenia ([10]; in vivo): 4 patients
- Grade 4 neutropenia reported as serious drug-related AE ([10]; in vivo): 1 patient
- Grade 4 neutropenia, share of cycles administered ([10]; in vivo): 89.7%
- Study drug-related AE: Skin and subcutaneous tissue disorders, Overall grades ([10]; in vivo): 4 (36.4) N (%)
- Study drug-related AE: Stomatitis, Overall grades ([10]; in vivo): 1 (9.1) N (%)
- Study drug-related AE: Vomiting, Overall grades ([10]; in vivo): 4 (36.4) N (%)
- Study drug-related serious AEs (SAEs) ([10]; in vivo): 6 patients
